Tested on: 624824-186-R-J2-PDC multicell spheroids, viability
Test: Anticancer human tumor 624824-186-R-J2-PDC patient-derived colon adenocarcinoma cell line growth inhibition [PI3K]
Details: for IC50: curve of first compound; for viability, T/C: stronger effect = lower value
How it was run: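 High-throughput combination screen: PI3K inhibitors crossed with targeted small molecules on complex spheroids of tumor cells, HUVEC and MSCs at 37 degrees C, 5% CO2. Top concentration was at or near clinical Cmax (otherwise 10 microM), with half-log decrements.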
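Further: spheroids exposed to agents for 7 days before viability read.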
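Wherever viability, T/C is given: 100% = DMSO vehicle treated spheroids.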

With `CC1(C)CCC(CN2CCN(c3ccc(C(=O)NS(=O)(=O)c4ccc(NCC5CCOCC5)c([N+](=O)[O-])c4)c(Oc4cnc5[nH]ccc5c4)c3)CC2)=C(c2ccc(Cl)cc2)C1` + Cc1nc(NC(=O)N2CCCC2C(N)=O)sc1-c1ccnc(C(C)(C)C(F)(F)F)c1 the IC50 (second compound 0.0316 µM) was over 10 µM, the IC50 (second compound 0.1 µM) was over 10 µM and the IC50 (second compound 0.316 µM) was over 10 µM. It also gave an IC50 (second compound 1 µM) of over 10 µM, an IC50 (second compound 3.16 µM) of over 10 µM and an IC50 (second compound 10 µM) of 6.9 µM. It also gave a viability, T/C (second compound 0.0316 µM, first compound 0.0316 µM) of 103%, a viability, T/C (second compound 0.0316 µM, first compound 0.1 µM) of 93.7% and a viability, T/C (second compound 0.0316 µM, first compound 0.316 µM) of 95.9%. The viability, T/C (second compound 0.0316 µM, first compound 1 µM) was 68.5%, the viability, T/C (second compound 0.0316 µM, first compound 3.16 µM) was 70.9% and the viability, T/C (second compound 0.0316 µM, first compound 10 µM) was 67.1%. For the same compound, the viability, T/C (second compound 0.1 µM, first compound 0.0316 µM) was 84.3%, the viability, T/C (second compound 0.1 µM, first compound 0.1 µM) was 88.3% and the viability, T/C (second compound 0.1 µM, first compound 0.316 µM) was 88.2%. The viability, T/C (second compound 0.1 µM, first compound 1 µM) was 80.8%, the viability, T/C (second compound 0.1 µM, first compound 3.16 µM) was 84.1% and the viability, T/C (second compound 0.1 µM, first compound 10 µM) was 51.7%. For the same compound, the viability, T/C (second compound 0.316 µM, first compound 0.0316 µM) was 82.9%, the viability, T/C (second compound 0.316 µM, first compound 0.1 µM) was 86.9% and the viability, T/C (second compound 0.316 µM, first compound 0.316 µM) was 75.6%. It also gave a viability, T/C (second compound 0.316 µM, first compound 1 µM) of 72.1%, a viability, T/C (second compound 0.316 µM, first compound 3.16 µM) of 67.1% and a viability, T/C (second compound 0.316 µM, first compound 10 µM) of 67.5%. The viability, T/C (second compound 1 µM, first compound 0.0316 µM) was 91.3%, the viability, T/C (second compound 1 µM, first compound 0.1 µM) was 78.9% and the viability, T/C (second compound 1 µM, first compound 0.316 µM) was 79.6%. The viability, T/C (second compound 1 µM, first compound 1 µM) was 80.3%, the viability, T/C (second compound 1 µM, first compound 3.16 µM) was 100% and the viability, T/C (second compound 1 µM, first compound 10 µM) was 77.3%. The viability, T/C (second compound 3.16 µM, first compound 0.0316 µM) was 68.1%, the viability, T/C (second compound 3.16 µM, first compound 0.1 µM) was 76.9% and the viability, T/C (second compound 3.16 µM, first compound 0.316 µM) was 80.3%. The viability, T/C (second compound 3.16 µM, first compound 1 µM) was 94.7%, the viability, T/C (second compound 3.16 µM, first compound 3.16 µM) was 83.6% and the viability, T/C (second compound 3.16 µM, first compound 10 µM) was 50.4%. For the same compound, the viability, T/C (second compound 10 µM, first compound 0.0316 µM) was 73%, the viability, T/C (second compound 10 µM, first compound 0.1 µM) was 79.4% and the viability, T/C (second compound 10 µM, first compound 0.316 µM) was 68.5%. It also gave a viability, T/C (second compound 10 µM, first compound 1 µM) of 74.3%, a viability, T/C (second compound 10 µM, first compound 3.16 µM) of 82.6% and a viability, T/C (second compound 10 µM, first compound 10 µM) of 37.9%.

Reference: PubChem BioAssay AID1963975 (Molecular Pharmacology Branch, DTP, NCI, 2024)
